Experimental data from patent US20250295668A1, “METHODS FOR INDUCING COLANIC ACID BIOSYNTHESIS” (priority 2024, published 2025).
Values after ≈ are worked out from the molar mass of the structure shown. Values joined by “and” are separate entries in the source; they are usually repeats but may differ in a detail not shown here. Equal entries are not always repeated. “Also recorded” adds a separate entry of the source. Where two headings read alike, the source gives them in different places.

Tests used:
cps operon = assay: Disk diffusion assay for cps induction, SG20781 cpsB::lacZ reporter; type: cell-based, E. coli; settings: SG20781, filter paper disks 10 or 100 μg, 24 hours at 37° C.
Protocol: For antibiotic screening targeting cps expression, the SG20781 strain (MC4100 lon+cpsB10::lacZ Mu-immλ) was used. The bacteria were cultured overnight at 37° C. in Luria-Broth (LB) medium and evenly plated on X-gal (40 μg/mL) supplemented LB agar plates, and incubated overnight.
E. coli strain SG20781 was used to assess antibiotic cps induction via disk diffusion as previously described [PMID: 14553918]. In brief, an overnight bacteria culture was spread onto LB agar containing 0.1 mg ml-1 5-bromo-4-chloro-3-indolyl-β-D-galactoside (X-gal). […] The soaked filter papers were placed onto the bacteria-seeding plates and incubated for 24 hours at 37° C.
Certain β-lactam antibiotics trigger the overexpression of the cps operon in E. coli [PMID: 14553918]. To validate this finding, a disk diffusion assay was performed using SG20781, an E. coli strain that harbors a LacZ reporter for the cps operon transcriptional regulation. Using a colorimetric assay, an increased level of […] reacts with X-gal, resulting in an intensified blue coloration as a result of the transcriptional up-regulation of the cps operon.

E. coli [1] = assay: Bacterial growth under low-dose cephaloridine; type: cell-based; settings: low-dose cephaloridine vs vehicle-treated E. coli
C. elegans = C. elegans lifespan assay on antibiotic-treated E. coli; type: in vivo, Caenorhabditis elegans
Protocol: For longitudinal assays, E. coli Keio mutants were initially cultivated in M9 minimum medium at 37° C. for 16 hours. Subsequently, bacteria at stationary phase were reinoculated in fresh M9 medium with a low dose of cephaloridine at 37° C. for another 16 hours. A 100 μL aliquot of the bacteria culture was seeded onto each 6-cm NGM plate and maintained at 20° C. Fresh bacteria plates were prepared every other day for transfer to alive worms. Caenorhabditis elegans var. Bristol N2 strain was obtained from the Caenorhabditis Genome Center. The strain was maintained on standard nematode growth medium (NGM) agar plates seeded with corresponding bacteria at 20° C. Age synchronization of C. elegans was achieved by isolating eggs as previously described [PMID: 4858229]. Lifespan assays were performed as previously described [PMID: 25554789]. In brief, age-synchronized C. elegans at the L1 stage were seeded onto designated bacteria lawns. Fresh bacteria-containing plates were made every other day for live C. elegans transfer. Once reaching adulthood as Day 0, worms were transferred to new bacteria plates. Death events were scored upon each transfer. Bagged worms and vulva protruding worms were censored throughout the analysis. Each assay contained 80-100 animals with 30-40 animals per 6 cm plate.

MG1655 E. coli = assay: Colanic acid production in MG1655 commensal E. coli; type: cell-based; settings: MG1655, low-dose cephaloridine, 37° C.
Protocol: The desired bacterial strain was first inoculated and cultured in M9 minimum medium overnight at 37° C. to obtain the seeding culture. The OD 600 was measured, and the seeding bacteria were diluted to OD600=0.02 in M9 minimum medium for another 16 hours. After the incubation, bacterial cultures were collected in 50 mL tubes, spun down at 4,000 g at 4° C. for 30 min, filtered, and 25 mL of supernatant was collected per 50 ml conical tube. Ice-cold 100% ethanol (EtOH) was added to make a final 50% EtOH solution for precipitation, and the mixture was kept at 4° C. overnight. Once precipitation occurred, the liquid was carefully removed after centrifugation at 4,000 g at 4° C. for 50 min. The pellet was washed once with cold 80% EtOH and then air-dried in a hood. The pellet from every 50 mL culture was resuspended in 500 μL distilled H2O. The solution was sonicated for 60 minutes at 37° C., followed by centrifugation at 4000 g at 4° C. for 10 minutes. […] The fucose quantification assay was then carried out using a K-FUCOSE kit (Megazyme) according to the manufacturer's protocol.
MG1655, a human-derived commensal K12 strain, was treated with a low dose of cephaloridine at 37° C., which induced colanic acid production (FIG. 3A). […] The luminal content of mice ileum was harvested after 3 hours of cephaloridine administration and were imaged for fluorescence. […]

E. coli [2] = settings: previously reported, cited from earlier work
[3] = PMID 9165537; cited from earlier work

## O=C(Cc1cccs1)N[C@@H]1C(=O)N2C(C(=O)[O-])=C(C[n+]3ccccc3)CS[C@H]12 [cephaloridine]
Cps operon
  cps induction (blue coloration): promote various shades of blue coloration
E. coli [1]
  effect on bacterial growth: did not hinder bacteria growth; also recorded: does not alter bacterial growth
C. elegans; MG1655 E. coli treated with 1.8 μg/mL
  C. elegans lifespan extension vs vehicle: 13% and 13.3%
C. elegans; cephaloridine-treated rcsA deletion mutant E. coli
  C. elegans lifespan: failed to extend lifespan
C. elegans; cephaloridine-treated rcsD deletion mutant E. coli
  C. elegans lifespan: effectively promoted longevity
C. elegans; wildtype E. coli treated with 1.8 μg/mL
  C. elegans lifespan extension vs vehicle: 14%
MG1655 E. coli
  colanic acid production increase: 3.2 fold
E. coli [2]; PMID 380457
  MIC: 2 µg/mL (≈ 4.81 µM)
E. coli [2]; PMID 9371340
  MIC: 4 µg/mL (≈ 9.63 µM)
[3]
  absorption after oral administration: poorly absorbed; also recorded: near-zero absorption
  oral bioavailability: extremely low oral bioavailability
